In article PMC12458545, “Repurposing a Detrimental Antibody Epitope as Targeted Therapeutics for Sepsis and Rheumatoid Arthritis” (Research Square, 2025):
Entries after “also recorded” stand apart in the source; their conditions may differ.

Legend:
[1] = test system: collagen antibody-induced arthritis (CAIA); test: CAIA arthritis severity clinical score; format: in vivo, Balb/C mice; details: P2–1 i.p. daily Day 6 to Day 9; male and female mice; vs. saline vehicle
Method: The CAIA model was performed in Balb/C mice (8–10 weeks old) as described previously. On Day 0, mice received i.p. injection of 2 mg anti-collagen II mAb cocktail (α-II, Chondrex, Inc., Redmond, WA). On Day 3, mice received i.p. injection of 30 μg LPS (Escherichia coli O111:B4; Sigma-Aldrich) to activate inflammation and synchronize arthritis onset. Mice were randomized, and therapeutic agents (P2–1 peptide or pCTS-L-neutralizing mAb2) were administered i.p. daily from Day 6 to Day 9. Arthritis severity was scored daily using a clinical scoring system [0 – 4 per paw: 0 = normal; 1 = mild redness and swelling in a single joint type (ankle, wrist, or individual digits); 2 = moderate redness and swelling affecting two joint types; 3 = severe redness and swelling involving across all three joint types; 4 = maximal redness and swelling of the entire paw that obscured joint definition].

human PBMCs [2] = test: RNA-seq of HMGB1-stimulated PBMCs; format: cell-based; details: for other HMGB1-induced gene expression (cytokines, chemokines) (words): P2–1 5.0 or 10.0 μg/ml with HMGB1
Method: (§1) Human blood was purchased from the New York Blood Center (Long Island City, NY, USA), and PBMCs were isolated by density gradient centrifugation through Ficoll (Ficoll-Paque PLUS) as previously described,[30]. PBMCs were cultured in RPMI-1640 supplemented with 10% human serum, 2 mM L-glutamine, 100 U/mL penicillin, and 100 μg/mL streptomycin (all from Invitrogen). For experiments, PBMCs were stimulated with recombinant human HMGB1 (0.5 or 2.0 μg/ml) for 16 hours, either alone or in combination with P2–1 at 5.0 or 10.0 μg/ml. Cell-free supernatants were collected for analysis of cytokines/chemokines levels by Cytokine Antibody Arrays, or pCTS-L levels by Western blotting analysis as described.
Total RNA was isolated from human PBMCs stimulated with HMGB1 in the absence or presence of P2–1 (5.0 or 10.0 μg/ml) using the RNeasy Mini Kit (Qiagen) according to the manufacturer’s instructions. RNA quantity and quality were assessed using a NanoDrop spectrophotometer and an Agilent Bioanalyzer. cDNA libraries were prepared using the TruSeq RNA Library Prep Kit v2 (Illumina) and sequenced on an Illumina NovaSeq 6000 platform to generate 100 bp paired-end reads. Raw sequencing reads were quality-checked using FastQC, trimmed with Trimmomatic, and aligned to the human reference genome (GRCh38) using HISAT2. Gene counts were quantified using StringTie and DESeq2 was used for differential gene expression analysis. Volcano plots and heatmaps were generated using ggplot2 and pheatmap packages in R, respectively. Genes with an adjusted P-value < 0.05 and a |log2-fold change| > 1 were considered differentially expressed.

human PBMCs [3] = test: HMGB1-induced cytokine/chemokine secretion, Cytokine Antibody Arrays; format: cell-based; details: P2–1 5 or 10 μg/ml, HMGB1 0.5 or 2.0 μg/ml, 16 h
Method: as §1
Levels of cytokines and chemokines in mouse serum and joint tissue lysates, or human PBMC culture supernatants were determined using murine or human Cytokine Antibody Arrays (e.g., Cat. No. M0308003 or Cat. No. AAH-CYT-3–4, RayBiotech Inc., Norcross, GA, USA) as previously described,[30],[86],[87]. Serum samples were collected from mice at 24 h post-CLP. The soft tissue of the hindpaw and ankle joints was carefully collected using a previously described protocol. Briefly, 0.5 g of fresh soft tissue was cut into 3 mm pieces, and mixed with 400 μL of a hypertonic solution (500 mL PBS with 4.5 g NaCl and 2× protease inhibitor cocktail) in a 10 mL syringe. Mechanical extrusion, involving 30 rapid back-and-forth movements of the plunger, was then performed. The expelled extracellular fluid was collected, immediately aliquoted, and stored at −20°C until analysis. Cell-conditioned medium was collected from PBMC cultures after 16 h of stimulation. Arrays were performed according to the manufacturer’s protocol, followed by chemiluminescent detection and densitometric quantification as previously described,[30].

human PBMCs [4] = test: HMGB1-induced pCTS-L secretion, Western blot; format: cell-based; details: P2–1 5 or 10 μg/ml, HMGB1 0.5 or 2.0 μg/ml, 16 h, n = 4 independent experiments
Method: as §1
Cell-conditioned medium from human PBMC cultures was collected, and concentrated using Amicon Ultra Centrifugal Filters. Equal volumes of conditioned medium, representing equivalent numbers of cells, were resolved on sodium dodecyl sulfate (SDS)-polyacrylamide gels and transferred to polyvinylidene difluoride (PVDF) membranes. After blocking with 5% nonfat milk in Tris-buffered saline with 0.1% Tween 20 (TBST), membranes were probed with a home-made primary monoclonal antibody against pCTS-L (e.g., mAb2, 1:1000) overnight as previously described. After washing, membranes were incubated with a horseradish peroxidase-conjugated secondary antibody. Protein bands were visualized using enhanced chemiluminescence (ECL) substrate (Pierce) and detected with a chemiluminescence imaging system (e.g., Bio-Rad ChemiDoc MP). The relative levels of specific proteins were determined using the UN-SCAN-IT Gel Analysis Software Version 7.1 (Silk Scientific Inc., Orem, UT, USA) and expressed in arbitrary units (AU).

## 54-TKVH(Nle)KSFLAFQTKT-69 [P2–1, water-soluble derivative of TN peptide P2 with Met to Norleucine and Cys to Ser substitutions]
[1]
  arthritis severity: dose-dependently and significantly attenuated
Human PBMCs [2]; HMGB1 + P2–1 group, three independent donors, mean ± SEM
  Ctsl mRNA upregulation (fold): 2.4 ± 0.1 fold
Human PBMCs [2]; P2–1 5.0 or 10.0 μg/ml
  HMGB1-induced Ctsl mRNA upregulation: moderately but significantly reduced HMGB1-induced Ctsl mRNA upregulation
Human PBMCs [2]
  other HMGB1-induced gene expression (cytokines, chemokines) (words): did not broadly reverse HMGB1-induced transcriptional changes for most genes; also recorded: not significantly affecting the expression of other HMGB1-induced cytokines and chemokines
Human PBMCs [2]; listed as P2-1
  other HMGB1-induced gene expression (cytokines, chemokines) (words): does not induce
Human PBMCs [3]
  HMGB1-induced cytokine/chemokine secretion (words): did not affect the secretion of these HMGB1-induced cytokines and chemokines; also recorded: did not broadly inhibit the secretion of these HMGB1-induced cytokines and chemokines
Human PBMCs [3]; listed as P2-1
  HMGB1-induced cytokine/chemokine secretion (words): does not broadly inhibit
Human PBMCs [4]
  HMGB1-induced pCTS-L secretion: dose-dependently abrogated HMGB1-induced pCTS-L secretion; also recorded: striking and dose-dependent suppression
Human PBMCs [4]; listed as P2-1
  HMGB1-induced pCTS-L secretion: inhibitory effect
